Assay [1] concerns the target BRD4 BD1 (Homo sapiens, UniProt O60885). In words: AlphaScreen assay, BRD4 BD1 inhibition. The class given is binding. Particulars: for inhibitory activity against BD1 (in words): measured range 0.0096 to 32 μM. Here is the method: To find the hit molecules for BRD4 bromodomain inhibitor discovery, we performed an in vitro AlphaScreen assay with in-house chemical libraries.
The AlphaScreen assay was described previously and performed according to the manufacturer’s protocol (PerkinElmer, USA). The reaction buffer was 50 mM HEPES pH 7.4, 100 mM NaCl, 0.1% BSA, and 0.05% CHAPS.
On the technique in general: In Alpha technology, singlet oxygen from a donor bead excites a nearby acceptor bead.

Assay [2] has as its target BRD4 BD2 (Homo sapiens, UniProt O60885). In words: AlphaScreen assay, BRD4 BD2 inhibition. Particulars: for inhibitory activity for BD2 (in words): AlphaScreen.
[3] abbreviates: Supplementary Table S2, mean of three independent measurements, 8-point titration from 0.0096 to 32 μM, read-out: IC50 (μM) for BD1.
[4] abbreviates: AlphaScreen, N = 3, standard deviations in parentheses, read-out: IC50 (BD1).

SMILES strings stand for the structures. Where two headings read alike, the source gives them in different places.

The term IC50 denotes the concentration that gives 50% inhibition. Take `Cc1nnc2ccc(NCCNC(=O)c3ccccc3)nn12` [Compound 39]: the IC50 in assay [1] (setting [3]) was over 32 µM. Regarding `CC(C)N1CCN(c2ccc3nnc(C4CCC4)n3n2)CC1` [Compound 27, 3-cyclobutyl-6-(4-isopropylpiperazino)[1,2,4]triazolo[4,3-b]pyridazine], the IC50 in assay [1] (setting [3]) was over 32 µM. For `CCc1nnc2ccc(NC(CO)Cc3c[nH]c4ccccc34)nn12` (stereo not drawn) [Compound 12, 2-[(3-ethyl-[1,2,4]triazolo[4,3-b]pyridazin-6-yl)amino]-3-(1H-indol-3-yl)propan-1-ol], in assay [1] (AlphaScreen), the “inhibitory activity against BD1 (in words)” value is recorded as “decreased blocking efficiency compared to that of 5”. Further, the IC50 was determined as 25.2 µM in assay [1] (setting [4]) and 36.5 µM in assay [2]. Moreover, the “inhibitory activity for BD2 (in words)” value in assay [2] was “have inhibitory activities for BD2”. For the compound `Fc1ccc2[nH]c3c(c2c1)CCN(c1ccc2nnc(-c4ccccc4F)n2n1)C3` [Compound 11, 6-Fluoro-2-[3-(2-fluorophenyl)-[1,2,4]triazolo[4,3-b]pyridazin-6-yl]-1,3,4,9-tetrahydropyrido[3,4-b]indole], the “inhibitory activity against BD1 (in words)” value in assay [1] (AlphaScreen) is given as “no inhibition”. In assay [1] (setting [3]), the 50% inhibitory concentration (IC50) is over 32 µM. For the compound `FC(F)(F)c1nnc2ccc(NCCc3c[nH]c4ccccc34)nn12` [Compound 6, N-[2-(1H-indol-3-yl)ethyl)-3-(trifluoromethyl)-[1,2,4]triazolo[4,3-b]pyridazin-6-amine], the “inhibitory activity against BD1 (in words)” value in assay [1] (AlphaScreen) is given as “did not much improved the IC50 value”. The values for the IC50 in assay [1] (setting [4]) and in assay [2] were 9.6 µM and 11.3 µM, respectively. The “inhibitory activity for BD2 (in words)” value in assay [2] is reported as “have inhibitory activities for BD2”. Consider `Cc1nnc2ccc(N3CCSCC3)nn12` [Compound 17], for which the “inhibitory activity against BD1 (in words)” value in assay [1] (AlphaScreen) is “no inhibitory efficacy”. Also, the IC50 in assay [1] (setting [3]) is over 32 µM.

`Cc1nnc2ccc(N3CCC4(CC3)OCCO4)nn12` [Compound 20]: the IC50 in assay [1] (setting [3]) is over 32 µM.

Take `COc1ccc(CNc2ccc3nnc(C)n3n2)cc1` [Compound 37]: in assay [1] (setting [3]), the IC50 was 8.91 ± 0.94 µM. For the compound `Cc1nnc2ccc(NCc3ccccc3)nn12` [Compound 35], the IC50 in assay [1] (setting [3]) was found to be 10.2 ± 1.29 µM. On to `Cc1nnc2ccc(N3CCC4(CC3)CNC4)nn12` [Compound 23], for which the IC50 in assay [1] (setting [3]) was over 32 µM. As to `Cc1nnc2ccc(NCCC(=O)O)nn12` [Compound 28], in assay [1] (setting [3]), the IC50 is over 32 µM. In the case of `CC(C)CCNC(=O)C1CCN(c2ccc3nnc(C(C)C)n3n2)CC1` [Compound 25, N-(3-methylbutyl)-1-[3-(propan-2-yl)[1,2,4]triazolo[4,3-b]pyridazin-6-yl]piperidine-4-carboxamide], the half-maximal inhibitory concentration (IC50) in assay [1] (setting [3]) was over 32 µM. Same read-out and setting: the figure for `Cc1nnc2ccc(NCCNC(=O)Nc3ccccc3)nn12` [Compound 40] is over 32 µM; for `Cc1nnc2ccc(NCCNC(=O)OC(C)(C)C)nn12` [Compound 32] it is over 32 µM. For `CCC(=O)NCCNc1ccc2nnc(C)n2n1` [Compound 34], in assay [1] (setting [3]), the IC50 was over 32 µM.

As for `Cc1nnc2ccc(NCCO)nn12` [Compound 31], the IC50 in assay [1] (setting [3]) was over 32 µM. With `Cc1nnc2ccc(NCCc3c[nH]c4ccc(F)cc34)nn12` [Compound 7, N-[2-(5-fluoro-1H-indol-3-yl)ethyl]-3-methyl-[1,2,4]triazolo[4,3-b]pyridazin-6-amine], the “inhibitory activity against BD1 (in words)” value in assay [1] (AlphaScreen) is listed as “nearly same blocking efficacy”. Also, the IC50 in assay [1] (setting [3]) was 29 ± 5.7 µM. For `Cc1nnc2ccc(N3CCC4(CC3)CN(C(=O)OC(C)(C)C)C4)nn12` [Compound 21], in that order: “exhibited inhibitory activities” and 6.21 ± 1.2 µM. On to `CC(C)c1nnc2ccc(N3CCC(C(=O)NC4CC4)CC3)nn12` [Compound 26, N-cyclopropyl-1-[3-(propan-2-yl)[1,2,4]triazolo[4,3-b]pyridazin-6-yl]piperidine-4-carboxamide], for which the IC50 in assay [1] (setting [3]) was over 32 µM. On to `CCOC(=O)CCNc1ccc2nnc(C)n2n1` [Compound 33], for which the “inhibitory activity against BD1 (in words)” value in assay [1] (AlphaScreen) is listed as “showed inhibitory activity”. The IC50 in assay [1] (setting [3]) came to 7.51 ± 0.63 µM. As for `Cc1nnc2ccc(NCCc3c[nH]c4ccccc34)nn12` [Compound 5], the IC50 in assay [1] (setting [4]) was 17.1 µM. In assay [2], the IC50 came out at 23.2 µM and the “inhibitory activity for BD2 (in words)” value is recorded as “have inhibitory activities for BD2”. Turning to `Cc1nnc2ccc(NCCC(=O)Nc3ccccc3)nn12` [Compound 38], the IC50 in assay [1] (setting [3]) is over 32 µM. For the compound `COc1ccc2[nH]cc(CCNc3ccc4nnc(C)n4n3)c2c1` [Compound 8, N-[2-(5-methoxy-1H-indol-3-yl)ethyl)-3-methyl-[1,2,4]triazolo[4,3-b]pyridazin-6-amine], in assay [1] (AlphaScreen), the “inhibitory activity against BD1 (in words)” value was “nearly same blocking efficacy”. Moreover, the IC50 in assay [1] (setting [3]) is 25.7 ± 11.1 µM. For `CC1CCN(c2ccc3nnc(CNS(=O)(=O)N(C)C)n3n2)CC1` [Compound 15], in assay [1] (AlphaScreen), the “inhibitory activity against BD1 (in words)” value is reported as “no inhibitory efficacy”. Besides, in assay [1] (setting [3]), the IC50 is over 32 µM. Take `Cc1nnc2ccc(N3CCC4(CCN(C(=O)OC(C)(C)C)CC4)CC3)nn12` [Compound 19]: the “inhibitory activity against BD1 (in words)” value in assay [1] (AlphaScreen) was “exhibited inhibitory activities”. Moreover, the IC50 in assay [1] (setting [3]) turned out to be 9.22 ± 1.6 µM. For `Cc1nnc2ccc(N3CCOCC3)nn12` [Compound 16], in that order: “no inhibitory efficacy” and over 32 µM. As for `CCS(=O)(=O)NCCNc1ccc2nnc(C)n2n1` [Compound 29], the IC50 in assay [1] (setting [3]) is over 32 µM.

As for `Cc1nnc2ccc(N3CCCCC3)nn12` [Compound 13], the “inhibitory activity against BD1 (in words)” value in assay [1] (AlphaScreen) was “no blocking activities”. The IC50 in assay [1] (setting [3]) was over 32 µM. For the compound `Fc1cc2[nH]cc(CCNc3ccc4nnc(C5CC5)n4n3)c2cc1Cl` [Compound 10, N-[2-(5-chloro-6-fluoro-1H-indol-3-yl)ethyl]-3-cyclopropyl-[1,2,4]triazolo[4,3-b]pyridazin-6-amine], the “inhibitory activity against BD1 (in words)” value in assay [1] (AlphaScreen) is on record as “no inhibitory efficiency in the measured range”. The IC50 in assay [1] (setting [3]) is over 32 µM.

Turning to `FC(F)(F)c1nnc2ccc(NCC(c3ccccc3)c3c[nH]c4ccccc34)nn12` (stereo not drawn) [Compound 9, N-[2-(1H-indol-3-yl)-2-phenylethyl]-3-(trifluoromethyl)-[1,2,4]triazolo[4,3-b]pyridazin-6-amine], the “inhibitory activity against BD1 (in words)” value in assay [1] (AlphaScreen) is recorded as “increased the IC50 value by only twofold compared to that of 6”. In addition, in assay [1] (setting [3]), the IC50 is 23.4 ± 8.3 µM. Consider `Cc1nnc2ccc(N3C4CCC3COC4)nn12` [Compound 18], for which the “inhibitory activity against BD1 (in words)” value in assay [1] (AlphaScreen) is “no inhibitory efficacy”. The IC50 in assay [1] (setting [3]) is over 32 µM.

Take `Cc1nnc2ccc(N3CCC4(CCNCC4)CC3)nn12` [Compound 22]: the IC50 in assay [1] (setting [3]) is over 32 µM. On to `CC(C)c1nnc2ccc(N3CCC(C(=O)O)CC3)nn12` [Compound 24, 1-(3-Isopropyl-[1,2,4]triazolo[4,3-b]pyridazin-6-yl)piperidine-4-carboxylic acid], for which, in assay [1] (setting [3]), the 50% inhibitory concentration (IC50) is over 32 µM.

(Values after publication PMC10319850, “Crystal structure of [1,2,4] triazolo[4,3- b ]pyridazine derivatives as BRD4 bromodomain inhibitors and structure–activity relationship study” (Scientific Reports, 2023).)
